Assay results published in patent publication US20220389061A1, “IMMUNOMODULATORS” (priority 2019, published 2022).
Starred links: 1 amine or outer side, 2 acyl side, 3 side chain; linkers in the order of their positions; H or OH if unused. Positions of bridges follow the written chain, without caps; N, C: chain ends. Non-standard residues stand in square brackets, D forms with d. Residues, ends and D or L forms follow the SMILES beside them. Groups on a side chain read outwards from the residue. *: point of attachment. Trp(1-CH2CO2Me) = COC(=O)Cn1cc(C[C@H](N)C(=O)O)c2ccccc21; Trp(1-CH2COOH) = N[C@@H](Cc1cn(CC(=O)O)c2ccccc12)C(=O)O; X66 = O=C([C@H](CCN/C(=N/c1ccccc1)c1ccccc1)N[*:1])[*:2]; X57 = O=C([C@H](CN/C(=N/c1ccccc1)c1ccccc1)N[*:1])[*:2]; Benzoyl(2-(4-MeOPh)) = COc1ccc(-c2ccccc2C(=O)*)cc1; Hyp = O=C(O)[C@@H]1C[C@@H](O)CN1; X14 = Cc1c[nH]c2c(NC(=S)*)cccc12; X25 = FC(F)(F)Oc1ccc(NC(=S)*)cc1; X10 = S=C(Nc1ccc(N2CCOCC2)cc1)*; X27 = Cc1cc([N+](=O)[O-])ccc1N*; NMeNle = CCCC[C@H](NC)C(=O)O; X16 = S=C(Nc1ccc2c(c1)OCO2)*; X4 = S=C(Nc1ccc2c(c1)OCCO2)*; X54 = S=C(Nc1cccc2ncccc12)*; X48 = O=C(c1ccc2ccoc2c1)*; NMeA = CN[C@@H](C)C(=O)O; Dab = NCC[C@H](N)C(=O)O; Dap = NC[C@H](N)C(=O)O; X15 = Cc1ccc(Cl)cc1N*; X26 = S=C(Nc1ccccc1)*; CO = O=C([*:1])[*:2]

Target: T1, PD-1/PD-L1 (Homo sapiens, UniProt Q9NZQ7)
T1 construct: TVMV protease site linker (C); made in house; host or cells: HEK293T cells
T1 sequence (Q9NZQ7 18-239): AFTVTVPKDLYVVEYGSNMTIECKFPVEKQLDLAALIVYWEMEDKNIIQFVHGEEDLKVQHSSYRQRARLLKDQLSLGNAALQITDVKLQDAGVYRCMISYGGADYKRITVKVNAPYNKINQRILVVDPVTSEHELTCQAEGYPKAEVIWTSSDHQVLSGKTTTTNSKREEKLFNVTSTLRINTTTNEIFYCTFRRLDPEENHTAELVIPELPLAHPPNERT
Test: PD-1/PD-L1 Homogenous Time-Resolved Fluorescence (HTRF) binding assay
Details: PD-L1-His 10 nM pre-incubated with inhibitor, PD-1-Ig 20 nM; read-out: HTRF IC50
Procedure, shortened: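 HTRF read-out using europium cryptate anti-Ig (1 nM) and APC anti-His (20 nM) on extracellular-domain fusion proteins in dPBS/0.1% BSA/0.05% Tween-20. Inhibitor first incubated 15 min with 10 nM PD-L1-His, followed by 20 nM PD-1-Ig for another 15 min.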

IC50 [nM] | Compound
8.2 | CCCC[C@H]1C(=O)N(C)[C@@H](CCCC)C(=O)N[C@@H](CC(C)C)C(=O)N[C@H](C(=O)NCC(N)=O)CSCC(=O)N[C@@H](Cc2ccc(O)cc2)C(=O)N(C)[C@@H](C)C(=O)N[C@@H](CC(N)=O)C(=O)N2CCC[C@H]2C(=O)N[C@@H](CNC(=O)c2ccc3ccoc3c2)C(=O)N[C@@H](CC(C)C)C(=O)N2C[C@H](O)C[C@H]2C(=O)N[C@@H](Cc2c[nH]c3ccccc23)C(=O)N[C@@H](CCNC(=O)c2ccc3ccoc3c2)C(=O)N[C@@H](Cc2cn(CC(=O)OC)c3ccccc23)C(=O)N1C [Example 3011] ({CH2CO}-Y[NMeA]NP[Dap](X48)L[Hyp]W[Dab](X48)[Trp(1-CH2CO2Me)][NMeNle][NMeNle]LCG-NH2; thioether N-14)
3.8 | CCCC[C@H]1C(=O)N(C)[C@@H](CCCC)C(=O)N[C@@H](CC(C)C)C(=O)N[C@H](C(=O)NCC(N)=O)CSCC(=O)N[C@@H](Cc2ccc(O)cc2)C(=O)N(C)[C@@H](C)C(=O)N[C@@H](CC(N)=O)C(=O)N2CCC[C@H]2C(=O)N[C@@H](CNC(=S)Nc2cccc3ncccc23)C(=O)N[C@@H](CC(C)C)C(=O)N2C[C@H](O)C[C@H]2C(=O)N[C@@H](Cc2c[nH]c3ccccc23)C(=O)N[C@@H](CCN)C(=O)N[C@@H](Cc2cn(CC(=O)O)c3ccccc23)C(=O)N1C [Example 3018] ({CH2CO}-Y[NMeA]NP[Dap](X54)L[Hyp]W[Dab][Trp(1-CH2COOH)][NMeNle][NMeNle]LCG-NH2; thioether N-14)
7.5 | CCCC[C@H]1C(=O)N(C)[C@@H](CCCC)C(=O)N[C@@H](CC(C)C)C(=O)N[C@H](C(=O)NCC(N)=O)CSCC(=O)N[C@@H](Cc2ccc(O)cc2)C(=O)N(C)[C@@H](C)C(=O)N[C@@H](CC(N)=O)C(=O)N2CCC[C@H]2C(=O)N[C@@H](CN/C(=N/c2ccccc2)c2ccccc2)C(=O)N[C@@H](CC(C)C)C(=O)N2C[C@H](O)C[C@H]2C(=O)N[C@@H](Cc2c[nH]c3ccccc23)C(=O)N[C@@H](CCN/C(=N/c2ccccc2)c2ccccc2)C(=O)N[C@@H](Cc2cn(CC(=O)O)c3ccccc23)C(=O)N1C [Example 1017] ({CH2CO}-Y[NMeA]NP[X57]L[Hyp]W[X66][Trp(1-CH2COOH)][NMeNle][NMeNle]LCG-NH2; thioether N-14)
4.3 | CCCC[C@H]1C(=O)N(C)[C@@H](CCCC)C(=O)N[C@@H](CC(C)C)C(=O)N[C@H](C(=O)NCC(N)=O)CSCC(=O)N[C@@H](Cc2ccc(O)cc2)C(=O)N(C)[C@@H](C)C(=O)N[C@@H](CC(N)=O)C(=O)N2CCC[C@H]2C(=O)N[C@@H](CNC(=O)Nc2cc(Cl)ccc2C)C(=O)N[C@@H](CC(C)C)C(=O)N2C[C@H](O)C[C@H]2C(=O)N[C@@H](Cc2c[nH]c3ccccc23)C(=O)N[C@@H](CCNC(=O)Nc2cc(Cl)ccc2C)C(=O)N[C@@H](Cc2cn(CC(=O)O)c3ccccc23)C(=O)N1C [Example 1118] ({CH2CO}-Y[NMeA]NP[Dap]([CO-X15])L[Hyp]W[Dab]([CO-X15])[Trp(1-CH2COOH)][NMeNle][NMeNle]LCG-NH2; thioether N-14)
7.1 | CCCC[C@H]1C(=O)N(C)[C@@H](CCCC)C(=O)N[C@@H](CC(C)C)C(=O)N[C@H](C(=O)NCC(N)=O)CSCC(=O)N[C@@H](Cc2ccc(O)cc2)C(=O)N(C)[C@@H](C)C(=O)N[C@@H](CC(N)=O)C(=O)N2CCC[C@H]2C(=O)N[C@@H](CNC(=S)Nc2ccc(OC(F)(F)F)cc2)C(=O)N[C@@H](CC(C)C)C(=O)N2C[C@H](O)C[C@H]2C(=O)N[C@@H](Cc2c[nH]c3ccccc23)C(=O)N[C@@H](CCNC(=S)Nc2ccc(OC(F)(F)F)cc2)C(=O)N[C@@H](Cc2cn(CC(=O)O)c3ccccc23)C(=O)N1C [Example 1010] ({CH2CO}-Y[NMeA]NP[Dap](X25)L[Hyp]W[Dab](X25)[Trp(1-CH2COOH)][NMeNle][NMeNle]LCG-NH2; thioether N-14)
5 | CCCC[C@H]1C(=O)N(C)[C@@H](CCCC)C(=O)N[C@@H](CC(C)C)C(=O)N[C@H](C(=O)NCC(N)=O)CSCC(=O)N[C@@H](Cc2ccc(O)cc2)C(=O)N(C)[C@@H](C)C(=O)N[C@@H](CC(N)=O)C(=O)N2CCC[C@H]2C(=O)N[C@@H](CNC(=S)Nc2ccc3c(c2)OCCO3)C(=O)N[C@@H](CC(C)C)C(=O)N2C[C@H](O)C[C@H]2C(=O)N[C@@H](Cc2c[nH]c3ccccc23)C(=O)N[C@@H](CCN)C(=O)N[C@@H](Cc2cn(CC(=O)O)c3ccccc23)C(=O)N1C [Example 3073] ({CH2CO}-Y[NMeA]NP[Dap](X4)L[Hyp]W[Dab][Trp(1-CH2COOH)][NMeNle][NMeNle]LCG-NH2; thioether N-14)
3 | CCCC[C@H]1C(=O)N(C)[C@@H](CCCC)C(=O)N[C@@H](CC(C)C)C(=O)N[C@H](C(=O)NCC(N)=O)CSCC(=O)N[C@@H](Cc2ccc(O)cc2)C(=O)N(C)[C@@H](C)C(=O)N[C@@H](CC(N)=O)C(=O)N2CCC[C@H]2C(=O)N[C@@H](CNC(=S)Nc2ccc(N3CCOCC3)cc2)C(=O)N[C@@H](CC(C)C)C(=O)N2C[C@H](O)C[C@H]2C(=O)N[C@@H](Cc2c[nH]c3ccccc23)C(=O)N[C@@H](CCNC(=S)Nc2ccc(N3CCOCC3)cc2)C(=O)N[C@@H](Cc2cn(CC(=O)O)c3ccccc23)C(=O)N1C [Example 1127] ({CH2CO}-Y[NMeA]NP[Dap](X10)L[Hyp]W[Dab](X10)[Trp(1-CH2COOH)][NMeNle][NMeNle]LCG-NH2; thioether N-14)
2.9 | CCCC[C@H]1C(=O)N(C)[C@@H](CCCC)C(=O)N[C@@H](CC(C)C)C(=O)N[C@H](C(=O)NCC(N)=O)CSCC(=O)N[C@@H](Cc2ccc(O)cc2)C(=O)N(C)[C@@H](C)C(=O)N[C@@H](CC(N)=O)C(=O)N2CCC[C@H]2C(=O)N[C@@H](CNC(=S)Nc2cccc3c(C)c[nH]c23)C(=O)N[C@@H](CC(C)C)C(=O)N2C[C@H](O)C[C@H]2C(=O)N[C@@H](Cc2c[nH]c3ccccc23)C(=O)N[C@@H](CCNC(=S)Nc2cccc3c(C)c[nH]c23)C(=O)N[C@@H](Cc2cn(CC(=O)O)c3ccccc23)C(=O)N1C [Example 3025] ({CH2CO}-Y[NMeA]NP[Dap](X14)L[Hyp]W[Dab](X14)[Trp(1-CH2COOH)][NMeNle][NMeNle]LCG-NH2; thioether N-14)
0.98 | CCCC[C@H]1C(=O)N(C)[C@@H](CCCC)C(=O)N[C@@H](CC(C)C)C(=O)N[C@H](C(=O)NCC(N)=O)CSCC(=O)N[C@@H](Cc2ccc(O)cc2)C(=O)N(C)[C@@H](C)C(=O)N[C@@H](CC(N)=O)C(=O)N2CCC[C@H]2C(=O)N[C@@H](CNC(=S)Nc2ccc3c(c2)OCO3)C(=O)N[C@@H](CC(C)C)C(=O)N2C[C@H](O)C[C@H]2C(=O)N[C@@H](Cc2c[nH]c3ccccc23)C(=O)N[C@@H](CCN)C(=O)N[C@@H](Cc2cn(CC(=O)O)c3ccccc23)C(=O)N1C [Example 3065] ({CH2CO}-Y[NMeA]NP[Dap](X16)L[Hyp]W[Dab][Trp(1-CH2COOH)][NMeNle][NMeNle]LCG-NH2; thioether N-14)
1.9 | CCCC[C@H]1C(=O)N(C)[C@@H](CCCC)C(=O)N[C@@H](CC(C)C)C(=O)N[C@H](C(=O)NCC(N)=O)CSCC(=O)N[C@@H](Cc2ccc(O)cc2)C(=O)N(C)[C@@H](C)C(=O)N[C@@H](CC(N)=O)C(=O)N2CCC[C@H]2C(=O)N[C@@H](CNC(=S)Nc2ccccc2)C(=O)N[C@@H](CC(C)C)C(=O)N2C[C@H](O)C[C@H]2C(=O)N[C@@H](Cc2c[nH]c3ccccc23)C(=O)N[C@@H](CCNC(=S)Nc2ccccc2)C(=O)N[C@@H](Cc2cn(CC(=O)O)c3ccccc23)C(=O)N1C [Example 1001] ({CH2CO}-Y[NMeA]NP[Dap](X26)L[Hyp]W[Dab](X26)[Trp(1-CH2COOH)][NMeNle][NMeNle]LCG-NH2; thioether N-14)

Compound | IC50 [nM]
CCCC[C@H]1C(=O)N(C)[C@@H](CCCC)C(=O)N[C@@H](CC(C)C)C(=O)N[C@H](C(=O)NCC(N)=O)CSCC(=O)N[C@@H](Cc2ccc(O)cc2)C(=O)N(C)[C@@H](C)C(=O)N[C@@H](CC(N)=O)C(=O)N2CCC[C@H]2C(=O)N[C@@H](CNC(=O)c2ccccc2-c2ccc(OC)cc2)C(=O)N[C@@H](CC(C)C)C(=O)N2C[C@H](O)C[C@H]2C(=O)N[C@@H](Cc2c[nH]c3ccccc23)C(=O)N[C@@H](CCN)C(=O)N[C@@H](Cc2cn(CC(=O)OC)c3ccccc23)C(=O)N1C [Example 1057] ({CH2CO}-Y[NMeA]NP[Dap](Benzoyl(2-(4-MeOPh)))L[Hyp]W[Dab][Trp(1-CH2CO2Me)][NMeNle][NMeNle]LCG-NH2; thioether N-14) | 3.2
CCCC[C@H]1C(=O)N(C)[C@@H](CCCC)C(=O)N[C@@H](CC(C)C)C(=O)N[C@H](C(=O)NCC(N)=O)CSCC(=O)N[C@@H](Cc2ccc(O)cc2)C(=O)N(C)[C@@H](C)C(=O)N[C@@H](CC(N)=O)C(=O)N2CCC[C@H]2C(=O)N[C@@H](CNC(=O)Nc2ccc([N+](=O)[O-])cc2C)C(=O)N[C@@H](CC(C)C)C(=O)N2C[C@H](O)C[C@H]2C(=O)N[C@@H](Cc2c[nH]c3ccccc23)C(=O)N[C@@H](CCN)C(=O)N[C@@H](Cc2cn(CC(=O)O)c3ccccc23)C(=O)N1C [Example 1133] ({CH2CO}-Y[NMeA]NP[Dap]([CO-X27])L[Hyp]W[Dab][Trp(1-CH2COOH)][NMeNle][NMeNle]LCG-NH2; thioether N-14) | 8.4
